# Results as given in PMC11843629, “Development of ketobenzothiazole-based peptidomimetic TMPRSS13 inhibitors with low nanomolar potency” (Journal of Enzyme Inhibition and Medicinal Chemistry, 2025).
# Read-outs that look alike come from different tables or passages of the source.
# Assays:
# thrombin [1] = target: T1, thrombin (Homo sapiens, UniProt P00734); test: In vitro inhibition assay, thrombin, Boc-QAR-AMC; assay type: biochemical
# T1 construct: purchased MilliporeSigma
# Experimental: (§1) Recombinant TMPRSS13-AFAAS-6His (this study) and matriptase[34] were expressed and purified as described. Recombinant human furin, Factor Xa (R&D Systems) and thrombin (MilliporeSigma) were obtained from commercial sources. Assays were performed in a buffer composed of 50 mM HEPES pH 7.4, 1 mM β-mercaptoethanol, 1 mM CaCl2 and 500 μg/ml BSA for furin and 50 mM HEPES pH 7.4, 150 mM NaCl and 0.1% BSA for other proteases. Assays were performed at room temperature using fluorogenic substrates (Boc-RVRR-AMC for furin and TMPRSS13, Boc-QAR-AMC for other proteases). The enzymatic activity was measured via fluorescence (excitation at 360 nm and emission at 460 nm) at room temperature using an HTX Synergy microplate reader (Agilent). Kis for TMPRSS13 and Factor Xa (FXa) were derived from IC50 dose–response curves using the Cheng-Prusoff equation[35] for reversible competitive inhibitors. For matripase, a plot of the enzyme velocity as a function of the inhibitor concentration was fitted with nonlinear regression analysis via the Morrison Ki equation[36] for competitive tight-binding inhibitors.
# human trypsin = test: Proteolysis assay (stability) with human trypsin; assay type: in vitro ADME; conditions: human trypsin (isolated protease), pH 7.4, compound final conc. 10 µM, 37 °C
# Experimental: For the proteolysis assay, human trypsin (#T6424, Sigma–Aldrich, Saint-Louis, Missouri, USA) was resuspended in 1 mM HCl and 20 mM CaCl2, pH 3, and diluted to a final concentration of 0.1 mg/ml in PBS buffer (pH 7.4, 10 mM PO43-, 150 mM NaCl). The control peptide R8 and the compounds of interest were added to a 96-well plate (37 °C) to a final concentration of 10 µM. Trypsin (0.1 µg/ml) was added to the wells for 0, 0.5, 1, 2, 4 and 6 h. The plate was quenched with AcN/EtOH (1:1) 1% formic acid and 0.25 mM N,N-dimethylbenzamide (IS) and centrifuged at 4 °C.
# matriptase [2] = target: T2, matriptase (Homo sapiens, UniProt Q9Y5Y6); test: In vitro inhibition assay, matriptase, Boc-QAR-AMC; assay type: biochemical; conditions: Morrison Ki equation, tight-binding
# T2 construct: made in house
# T2 sequence (Q9Y5Y6 1-855): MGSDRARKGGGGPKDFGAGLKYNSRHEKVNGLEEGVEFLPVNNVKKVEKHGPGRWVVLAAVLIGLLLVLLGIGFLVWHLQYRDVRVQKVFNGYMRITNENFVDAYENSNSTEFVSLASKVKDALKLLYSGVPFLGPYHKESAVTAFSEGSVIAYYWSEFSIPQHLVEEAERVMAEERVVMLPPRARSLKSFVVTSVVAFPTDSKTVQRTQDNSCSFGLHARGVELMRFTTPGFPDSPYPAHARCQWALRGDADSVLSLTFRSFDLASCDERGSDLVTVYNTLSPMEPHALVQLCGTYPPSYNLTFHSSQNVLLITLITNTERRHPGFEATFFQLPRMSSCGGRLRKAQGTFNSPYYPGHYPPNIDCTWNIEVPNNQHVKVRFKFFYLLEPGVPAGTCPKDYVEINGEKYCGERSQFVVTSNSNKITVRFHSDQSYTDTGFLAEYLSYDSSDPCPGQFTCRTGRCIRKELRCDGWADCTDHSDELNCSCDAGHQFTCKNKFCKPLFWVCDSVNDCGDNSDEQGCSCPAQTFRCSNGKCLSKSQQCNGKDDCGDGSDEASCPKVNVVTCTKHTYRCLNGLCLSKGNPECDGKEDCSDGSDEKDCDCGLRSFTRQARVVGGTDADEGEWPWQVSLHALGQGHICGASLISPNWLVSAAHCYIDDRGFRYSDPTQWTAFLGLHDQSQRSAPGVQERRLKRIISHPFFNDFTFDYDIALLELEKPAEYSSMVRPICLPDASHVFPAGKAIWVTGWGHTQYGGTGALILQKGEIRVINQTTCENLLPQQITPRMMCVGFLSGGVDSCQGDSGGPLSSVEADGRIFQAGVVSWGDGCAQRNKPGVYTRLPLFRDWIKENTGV
# Experimental: as §1
# furin [3] = target: T3, furin (Homo sapiens, UniProt P09958); test: In vitro inhibition assay, furin, Boc-RVRR-AMC; assay type: biochemical
# T3 construct: purchased R&D Systems
# T3 sequence (P09958 108-794): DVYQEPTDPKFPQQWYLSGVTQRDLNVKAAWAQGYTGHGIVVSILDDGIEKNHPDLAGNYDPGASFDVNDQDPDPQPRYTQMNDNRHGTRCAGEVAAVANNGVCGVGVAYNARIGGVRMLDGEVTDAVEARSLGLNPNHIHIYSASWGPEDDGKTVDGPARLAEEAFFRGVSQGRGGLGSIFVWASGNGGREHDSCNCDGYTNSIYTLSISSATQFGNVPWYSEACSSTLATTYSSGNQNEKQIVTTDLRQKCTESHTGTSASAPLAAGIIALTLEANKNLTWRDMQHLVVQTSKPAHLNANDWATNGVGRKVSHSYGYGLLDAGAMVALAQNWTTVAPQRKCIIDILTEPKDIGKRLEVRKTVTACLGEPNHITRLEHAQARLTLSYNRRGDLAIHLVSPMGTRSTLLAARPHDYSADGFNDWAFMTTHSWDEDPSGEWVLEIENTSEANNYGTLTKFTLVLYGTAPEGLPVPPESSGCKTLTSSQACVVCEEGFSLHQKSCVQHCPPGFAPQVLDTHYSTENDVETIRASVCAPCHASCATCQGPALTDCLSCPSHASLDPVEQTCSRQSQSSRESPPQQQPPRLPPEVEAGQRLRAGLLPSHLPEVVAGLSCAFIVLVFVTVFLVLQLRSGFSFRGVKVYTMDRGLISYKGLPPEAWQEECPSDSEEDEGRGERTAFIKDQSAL
# Experimental: as §1
# matriptase [4] = target: T2, matriptase; design: method as in Shapira et al. 2022 Nature; conditions: ref Shapira et al. 2022 Nature; cited from earlier work
# thrombin [5] = target: T1, thrombin; design: method as in Shapira et al. 2022 Nature; conditions: ref Shapira et al. 2022 Nature; cited from earlier work
# furin [6] = target: T3, furin; design: method as in Shapira et al. 2022 Nature; conditions: ref Shapira et al. 2022 Nature; cited from earlier work
SMILES,Ki (thrombin [1]) [µM],half-life at 10 µM (human trypsin) [days],Ki (matriptase [2]) [nM],Ki Matriptase (matriptase [2]),Ki (furin [3]) [µM],Ki (matriptase [4]) [nM],Ki Matriptase (matriptase [4]),Ki (thrombin [5]) [µM],Ki (furin [6]) [µM]
"N=C(N)NCCCCC(=O)N[C@@H](CCC(N)=O)C(=O)N[C@@H](CCc1ccccc1)C(=O)N[C@@H](CCCNC(=N)N)C(=O)c1nc2ccccc2s1 [Compound N-0430, (H)-RQhFR-Kbt]",> 10,1.23,0.28 ± 0.05,subnanomolar,> 10,–,–,–,–
"N=C(N)NCCCCC(=O)N[C@@H](CCC(N)=O)C(=O)N[C@@H](Cc1ccccc1)C(=O)N[C@@H](CCCNC(=N)N)C(=O)c1nc2ccccc2s1 [Compound N-0130, (H)-RQFR-Kbt]",–,4.37,–,–,–,0.13 ± 0.03,subnanomolar,8.23 ± 1.55,> 10
